Experimental data published in PubChem BioAssay (NCI).
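Where inhibition never reached the appropriate level, the endpoint shown equals the highest concentration tested. Otherwise, values were interpolated linearly from a five-concentration, 48-hour dose response in 96-well plates. The concentration for full growth arrest is given as TGI.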

Experiments:
Test in all cases: NCI anticancer screen, dose series, 48 h
SK-MEL-2 melanoma = test system: SK-MEL-2 melanoma
OVCAR-4 ovarian = test system: OVCAR-4 ovarian
COLO 205 colon = test system: COLO 205 colon
UACC-257 melanoma = test system: UACC-257 melanoma
A498 renal = test system: A498 renal
RXF 393 renal = test system: RXF 393 renal
NCI-H460 lung = test system: NCI-H460 lung
OVCAR-8 ovarian = test system: OVCAR-8 ovarian
SNB-19 CNS = test system: SNB-19 CNS
NCI-H23 lung = test system: NCI-H23 lung
U251 CNS = test system: U251 CNS
ACHN renal = test system: ACHN renal
SF-295 CNS = test system: SF-295 CNS
DU-145 prostate = test system: DU-145 prostate
MOLT-4 leukemia = test system: MOLT-4 leukemia
HL-60(TB) leukemia = test system: HL-60(TB) leukemia
HS 578T breast = test system: HS 578T breast
SK-OV-3 ovarian = test system: SK-OV-3 ovarian
EKVX NSCLC = test system: EKVX NSCLC
SF-268 CNS = test system: SF-268 CNS
KM12 colon = test system: KM12 colon
MALME-3M melanoma = test system: MALME-3M melanoma
MDA-MB-435 = test system: MDA-MB-435
LOX IMVI melanoma = test system: LOX IMVI melanoma
NCI-H226 lung = test system: NCI-H226 lung
MCF7 breast = test system: MCF7 breast
T-47D breast = test system: T-47D breast
SN12C renal = test system: SN12C renal
HCT-116 colon = test system: HCT-116 colon
PC-3 prostate = test system: PC-3 prostate
NCI-H522 lung = test system: NCI-H522 lung
SNB-75 CNS = test system: SNB-75 CNS
SK-MEL-5 melanoma = test system: SK-MEL-5 melanoma
MDA-MB-231 breast = test system: MDA-MB-231 breast
HCT-15 colon = test system: HCT-15 colon
MDA-N = test system: MDA-N
786-0 renal = test system: 786-0 renal
OVCAR-5 ovarian = test system: OVCAR-5 ovarian
HOP-62 NSCLC = test system: HOP-62 NSCLC
SW-620 colon = test system: SW-620 colon
RPMI-8226 leukemia = test system: RPMI-8226 leukemia
SR leukemia = test system: SR leukemia
OVCAR-3 ovarian = test system: OVCAR-3 ovarian
UO-31 renal = test system: UO-31 renal
K-562 leukemia = test system: K-562 leukemia
SK-MEL-28 melanoma = test system: SK-MEL-28 melanoma
NCI/ADR-RES ovarian = test system: NCI/ADR-RES ovarian
HT29 colon = test system: HT29 colon
A549 NSCLC = test system: A549 NSCLC
HCC-2998 colon = test system: HCC-2998 colon
CCRF-CEM leukemia = test system: CCRF-CEM leukemia
M14 melanoma = test system: M14 melanoma
IGROV1 ovarian = test system: IGROV1 ovarian
BT-549 breast = test system: BT-549 breast
CAKI-1 renal = test system: CAKI-1 renal
UACC-62 melanoma = test system: UACC-62 melanoma
SF-539 CNS = test system: SF-539 CNS
TK-10 renal = test system: TK-10 renal
HOP-92 NSCLC = test system: HOP-92 NSCLC

Measured: TGI

COc1ccc(-n2[nH]nc(C(N)=O)c2=O)cc1
13.8 µM: OVCAR-3 ovarian
not listed: SF-539 CNS | TK-10 renal | HOP-92 NSCLC
> 100 µM: all other assays above

C#C/C=C\CCCC/C=C\C#CC#CCCCC#CC#C[C@H](COS(=O)(=O)O)OS(=O)(=O)O
not listed: A498 renal | RXF 393 renal | SK-OV-3 ovarian | MALME-3M melanoma | NCI-H226 lung | K-562 leukemia
> 100 µM: all other assays above

COc1c(/C=C/C(C)(C)O)cc(C2CC(=O)c3c(O)cc(O)cc3O2)cc1CC=C(C)C (configuration not stated)
17.6 µM: SK-OV-3 ovarian
42.5 µM: SK-MEL-28 melanoma
18.1 µM: 786-0 renal
1.6 µM: UO-31 renal
15.9 µM: UACC-257 melanoma
18 µM: MALME-3M melanoma
16.5 µM: NCI-H460 lung | OVCAR-5 ovarian
16 µM: M14 melanoma
17.7 µM: COLO 205 colon
17.4 µM: SF-539 CNS | DU-145 prostate
32 µM: NCI/ADR-RES ovarian
15.8 µM: TK-10 renal | BT-549 breast
8.66 µM: HCC-2998 colon
18.6 µM: SNB-19 CNS | NCI-H522 lung
28.4 µM: RPMI-8226 leukemia
15.3 µM: RXF 393 renal | MDA-MB-435 | MCF7 breast
30.8 µM: HL-60(TB) leukemia
22.8 µM: SNB-75 CNS
23.1 µM: OVCAR-8 ovarian
16.7 µM: HT29 colon
13.3 µM: UACC-62 melanoma
24.6 µM: OVCAR-4 ovarian
35.7 µM: K-562 leukemia
20.5 µM: MDA-N
14.4 µM: U251 CNS
14.3 µM: ACHN renal | SN12C renal
16.3 µM: PC-3 prostate
11.6 µM: LOX IMVI melanoma
17.5 µM: HCT-15 colon
16.8 µM: A498 renal
24.9 µM: HS 578T breast
20.7 µM: KM12 colon
15.1 µM: MDA-MB-231 breast
33.2 µM: T-47D breast
18.4 µM: HCT-116 colon
15.6 µM: SK-MEL-2 melanoma | SK-MEL-5 melanoma
19.2 µM: SF-268 CNS
> 50 µM: SW-620 colon | CCRF-CEM leukemia | CAKI-1 renal
18.3 µM: NCI-H23 lung
17.8 µM: NCI-H226 lung | HOP-92 NSCLC
19.8 µM: A549 NSCLC
14.8 µM: SF-295 CNS
35 µM: MOLT-4 leukemia

[O-][N+](=Nc1ccccc1CO)c1ccccc1CO
not listed: ACHN renal | SF-295 CNS | HOP-62 NSCLC | IGROV1 ovarian | HOP-92 NSCLC
> 100 µM: all other assays above
